The values below come from US20020169296A1, “Linked, sequence-specific DNA-binding molecules” (priority 2000, published 2002).

One assay relates to satellite III chromatin. Nature of the assay: Restriction enzyme (HaeIII) cleavage within satellite III chromatin. Type of assay: biochemical, Drosophila. Particulars: data not shown. The source says:
Satellite III repeats contain near the topoisomerase II cleavage site a HaeIII restriction sequence. […] We made a similar observation using P9 (data not shown).

The subject of assay [1] is W9 probe (isolated 9 bp AT-tract). Nature of the assay: DNase I footprinting on W9 probe. It is filed as binding. From the text: To target AT-tracts, the principal component of satellite I, III and SARs), a pyrrole pentamer was synthesized by facile solid phase chemistry in which five pyrrole (Py) aromatic amino acid rings are linked covalently by amide bonds (Baird and Dervan, 1996). The resulting compound, termed P7 had the sequence Py-Py-Py-Py-Py-β-Dp (where β=β-alanine and Dp=dimethylaminopropylamide). This compound is expected to bind 7 successive A or T base pairs (Ws) according to the n+1 rule where n is the number of amides (Youngquist and Dervan, 1985). The DNA binding properties of P7 were assessed by DNAse I footprinting experiments using a synthetic probe containing isolated, repeated AT-tracts of 9 Ws (W9, FIG. 2A). By visual inspection, the apparent dissociation constant (Kapp) for P7 was estimated to be approximately 80 nM (Table 3).
were hybridized to obtain the W9 probe, oligomerized by ligation and digested with BamHl and BglII to obtain different tandem repeats. The following oligonucleotides were prepared identically:
(§1) Fragments were purified on low-melt agarose gels and then cloned into a modified pSP64 vector, cut by BamHI and BglII. End-labeling was carried out following digestion with HindIII and a fill-in reaction with Klenow DNA polymerase. The labeled plasmid was cut with PvuII and the target fragments purified from low-melting agarose gels. The 657 bp EcoRl/Hinf1 fragment of the Drosophila histone SAR was cloned into the SmaI site of the modified pSP64 plasmid. This SAR probe was end-labeled following digestion with EcoRl, then cut with ClaI and the resulting 347 bp fragment purified from low-melting agarose gels.
(§2) All reactions were performed in a total volume of 40 μl. A polyamide stock solution or buffer (for reference lanes) was added to an assay buffer containing 20 kcpm radiolabeled DNA, affording final concentrations of 10 mM Tris-HCl (pH 7.4), 10 mM KCl, 10 mM MgCl, 5 mM CaCl2, 0.5 mM EDTA, 0.5 mM EGTA, 1 mM DTT and 0.1% digitonine. The solutions were allowed to equilibrate for at least 2 h at room temperature. Footprinting reactions were initiated by the addition of 2 μl of a DNase stock solution (containing −100 pg DNase I in buffer) and allowed to proceed for 2 min at room temperature. The reactions were stopped by addition of 10 μl of a solution containing 1.25 M NaCl, 100 mM EDTA. Next, 5 μl of a 1% SDS solution was added, followed by 2 μl of a solution containing 1 μg poly(dA-dT), 1 μg salmon sperm DNA and 10 μg glycogen and the DNA was ethanol precipitated (20 min at −20° C.). The reactions were resuspended in 4 μl of 80% formamide loading buffer, denatured 10 min at 85° C., cooled on ice and electrophoresed on 8% polyacrylamide denaturing gels (5% cross-link, 8 M urea) at 30 W for 1 h. The gels were dried and exposed o/n at −70° C.

Assay [2] has as its system Drosophila satellite III chromatin (topoisomerase II cleavage). Nature of the assay: Topoisomerase II cleavage in satellite III of Kc nuclei in Xenopus egg extracts with VM26. It is filed as biochemical. To be noted: for concentration giving massive cleavage stimulation: P31 at 500 nM comparable to P9 at 62 nM (lowest tested).
The subject of assay [3] is sperm nuclei (condensation to chromatids). Nature of the assay: Chromosome condensation of sperm nuclei in mitotic Xenopus egg extracts. It is filed as biochemical. From the text: Mitotic Xenopus egg extracts convert added nuclei and sperm to chromatids in vitro. This chromosome condensation process requires topoisomerase II (Adachi et al., 1991), the protein complex condensin (Hirano T, 1997) and presumably other unidentified activities present in the mitotic extract. First, chromatin is remodeled and nuclei then proceed quite synchronously through a number of morphologically distinguishable steps (Hirano and Mitchison, 1991). Remodeling is morphological manifested by swelling of the nuclei which involves exchange of basic sperm-specific proteins for H2A/H2B and the incorporation of histone B4 (Dimitrov S, 1994).
Pyrrole drugs were added to the extract together with the sperm or after the remodeling step (at 10 minutes) and the extent of condensation was determined after 120 min. At this time point, the conversion of all sperm nuclei to clusters of individual chromatids is complete in the absence of drug (FIG. 8A, control). […] Addition of this compound at 125 to 250 nM (indicated) arrested this process at the so-called early ‘ruffle’ stage (FIG. 8A). These structures retain the swollen sperm shape, but they have peripheral blebs (ruffles) and a slightly heterogeneous interior. At this drug concentration, no chromatids are seen. If the concentration of Lex10 is raised to 500 nM, we observed an even earlier arrest as evidenced by the accumulation of swollen, remodeled sperm-shaped nuclei containing a homogeneous interior and smooth periphery. […] The monomer P7 was also tested but we observed no inhibition with the pyrrole pentamer up to the highest concentration (8 μM) tested. Condensation was inhibited at a ruffle stage with a P9 concentration of 2 μM (not shown).
In the experiment shown in FIG. 8B, Lex10 was added to the extract at a final concentration of 1 μM (several fold above the minimum inhibitory concentration) after which competitor oligonucleotides were added at different stages. Three different oligonucleotides of similar size were used: the SAR oligo contains two large clustered AT-tracts of the SAR probe (W17N5W15), the W9 oligo has a single AT tract of 9 base pairs and the GAGAA oligo harbors 5 tandem GAGAA repeats.
Topoisomerase II inhibition and chromosome assembly were as described previously (Girard et al., 1998, Strick and Laemmli, 1995). Affinity cleavage experiments was performed as described elsewhere (Turner et al., 1997).

The subject of assay [4] is Drosophila histone SAR probe (clustered/long AT-tracts). The experiment in a line: DNase I footprinting on SAR probe. It is filed as binding. Here is the method: Since satellite I is composed of exclusively A and T bases, it constitutes an ‘ideal’ binding substrate for oligopyrroles. But to obtain SAR-specific compounds, molecules are required that preferably bind its clustered, irregularly spaced AT-tracts. Binding studies were carried out with P9, P7 and P13 on the Drosophila histone SAR probe which contains the following clustered/long AT-tracts (W15N3W17N5W16N13W8NW6 where N is any base, see also FIG. 3D). […] The ratio of these two affinities is used (KappW9/KappSAR) as an empirical measure of SAR specificity. For all compounds tested thus far, this value (referred to as SAR preference factor) was around unity (Table 3).
as §1, §2

For assay [5], the target named is two GAGAA repeats (GAF31 probe). Nature of the assay: DNase I footprinting on GAGAA repeats. Particulars: read-out: apparent binding constant. The source says: In the framework of a search for molecular tools to study PEV, polyamide that targets the abundant satellite V composed of GAGAA repeats (Lohe et al., 1993) was synthesised. Designing molecules that would bind to this repeat motif represented a challenge since with current knowledge, targeting of sequences containing 5′-GNG-3′ or 5′-GA-3′ with drugs composed of pyrrole and imidazole is difficult. However, successful targeting to sequences containing 5′-GTG-3′ was previously achieved using an Im-β-Im motif where β-alanine replaces the function of pyrrole (Turner et al., 1998). Since β-alanine, like pyrroles, is degenerate for A.T and T.A base pairs, we designed a compound based on these observations, to recognize a sequence composed of two tandem GAGAA repeats by systematic placement of β-alanine at the N-terminal neighbor of imidazole. The binding affinity and specificity of this compound, termed P31 (=Im-β-Im-Py-β-Im-β-Im-β-Dp), were evaluated by DNAse I footprinting. For this purpose, two different probes were examined, both containing GAGAA repeats. […] The apparent binding constant of P31 for this sequence was estimated at 0.25 nM. At higher concentrations, protection of two mismatch binding sites was observed. One of these sites contains an AAGTG motif (FIG. 5A).
GAF31 is composed of the oligonucleotides:
(§3) All reactions were performed in a total volume of 40 μl. […]

Assay [6] concerns GAGA factor (GAF) binding site from the Ubx promoter (GAF31 probe). The experiment in a line: DNase I footprinting on Ubx GAF binding site.
Text: Panel A: DNAse I footprinting experiment with P31 and affinity cleavage with P31E are shown on GAF31 and the Brown I probes. The GAF31 and Brown I probes contains a (AAGAG)2 motif and GAGA factor (GAF) binding site from the Ubx promoter (Biggin et al., 1988). […] The Brown I oligo (a tandem repeat) includes an (AAGAG)5 binding site and a degenerate P31 binding site (AACAC)2 as indicated. P31 concentrations used (nM) are indicated. […] Binding orientations of P31E on these probes are indicated by arrowheads on the brackets pointing towards the N-terminus of the molecule. The letter G refers the G nucleotide cleavage reaction. Panel B: DNAse I footprinting experiment with purified GAGA factor (GAF) on the GAF31 probe. Note that GAF binds both the (AAGAG)2 motif and the binding site from the Ubx promoter.
A footprint experiment was therefore carried out with this protein. The DNA probe (GAF31) used for this purpose contains besides the (AAGAG)2 motif (the target of P31) a typical promoter proximal GAF binding site derived from the Ubx gene (Biggin et al., 1988). This Ubx site contains the pentameric consensus sequence […] of GAF (Omichinski et al., 1997).
as §3

Assay [7] has as its system GAGA factor (GAF) function. The experiment in a line: Feeding to developing Drosophila melanogaster of brown-dominant genotype. To be noted: fed to developing flies. It is filed as in vivo.
In assay [8] the test system is CACAA repeats (Brown I probe). Nature of the assay: DNase I footprinting on CACAA repeats. Type of assay: binding. From the text:
A drawback of this binding model, as opposed to conventional 2:1 drug to DNA complexes, is that P31 is expected to bind degenerate GC and CG base pairs, albeit with different affinity. The consensus sequence can thus be defined as […], where S stands for a G or C and W for A or T. To evaluate binding of P31 to CACAA repeats, we used a second probe that contains two of these repeats as well as five tandem GAGAA repeats. […] Again, it is observed than this molecule binds as a 1:1 drug to DNA complex in an orientation as indicated by arrowheads (FIG. 5A). We propose that special structural features of AT-tracts and GAGAA repeats might favor 1:1 DNA to drug complexes (see Discussion).
All reactions were performed in a total volume of 40 μl. A polyamide stock solution or buffer (for reference lanes) was added to an assay buffer containing 20 kcpm radiolabeled DNA, affording final concentrations of 10 mM Tris-HCl (pH 7.4), 10 mM KCl, 10 mM MgCl, 5 mM CaCl2, 0.5 mM EDTA, 0.5 mM EGTA, 1 mM DTT and 0.1% digitonine. The solutions were allowed to equilibrate for at least 2 h at room temperature. Footprinting reactions were initiated by the addition of 2 μl of a DNase stock solution (containing −100 pg DNase I in buffer) and allowed to proceed for 2 min at room temperature. The reactions were stopped by addition of 10 μl of a solution containing 1.25 M NaCl, 100 mM EDTA. […]

Values joined by “and” are separate entries in the source; they are usually repeats but may differ in a detail not shown here. Equal values may be shown once. Read-outs that look alike come from different tables or passages of the source.

For `CN(C)CCCNC(=O)CCNC(=O)c1cc(NC(=O)c2cc(NC(=O)c3cc(NC(=O)CCNC(=O)c4cc(NC(=O)c5cc(NC(=O)c6cccn6C)cn5C)cn4C)cn3C)cn2C)cn1C` [Compound P9, PyPyPy-β-PyPyPy-β-Dp], in the assay on satellite III chromatin, the “restriction enzyme cleavage within satellite III” value is reported as “facilitated cleavage”. For the same molecule, the “better affinity for W9 than P7” value in assay [1] was determined as 100 fold. Also, the Kd in assay [1] (apparent dissociation constant, W9 probe, read-out: Kdapp W9) is ~0.75 nM and 0.75 nM. In assay [2], the “concentration of maximal stimulation of topoisomerase II cleavage” value was 500 nM and 500 to 1000 nM; the “lower concentration for opening satellite III than P31” value is recorded as “roughly 10 fold”; the “stimulation of topoisomerase II cleavage in satellite III” value is listed as “massively stimulated”; the “concentration giving massive cleavage stimulation” value came out at 62 nM. Further, in assay [3] (120 min), the “concentration inhibiting chromosome condensation (block at ruffle stage)” value was found to be 2 µM. Further, the “reversal of condensation inhibition by competitor oligonucleotide” value in assay [3] (P9 2 μM, 500 ng of SAR-, W9- or GAGAA-oligo) is given as “did not rescue chromatid assembly”. Also, in assay [4], the “Ratio (KappW9/KappSAR, SAR preference factor)” value stood at 1.4. The Kd in [4] (apparent dissociation constant, SAR probe, read-out: Kdapp SAR) was 0.55 nM. Also, the “SAR specificity factor after tagging with fluorescent label” value in assay [4] (value of the tagged derivative) turned out to be 3.

Regarding `CN(C)CCCNC(=O)CCNC(=O)c1nc(NC(=O)CCNC(=O)c2nc(NC(=O)CCNC(=O)c3cc(NC(=O)c4nc(NC(=O)CCNC(=O)c5nccn5C)cn4C)cn3C)cn2C)cn1C` [Compound P31, Im-β-Im-Py-β-Im-β-Im-β-Dp], in [5], the Kd came to 0.25 nM. The “binding to Ubx GAF binding site” value in [6] is given as “does not bind”. In [7], the “effect on GAGA factor function in flies” value was “interferes with the function of the GAGA factor (GAF)”. Also, the “concentration giving massive cleavage stimulation” value in assay [2] worked out at 500 nM. Besides, in assay [2] (up to a concentration of 200 nM), the “stimulation of topoisomerase II cleavage in satellite III” value is listed as “no significant reinforcement of the pattern”. In addition, the “affinity for CACAA repeats relative to GAGAA repeats” value in assay [8] is on record as “approximately five fold lower affinity”.
